From patent US20250244419A1, “INFUSION DEVICE FOR THE PREPARATION AND DELIVERY OF MRI PROBES” (The United States of America, as represented by the …, priority 2022, published 2025) come the findings set out here.

Molecules are shown by their SMILES.

This assay in a line: Relaxation dynamics of hyperpolarized [1-13C]pyruvate (build-up time Tb, T1). It is filed as physicochemical. As to conditions: for corresponding T1 value: same conditions as build-up. From the text: In addition, the relaxation dynamics of the [1-^13C]pyruvate were also studied.
In addition, relaxation dynamics at earth field and 1.8 T are about the same as a non-fluorinated SABRE catalyst T1=28.9±1.6 s and 66.5±7 s, respectively.
In addition, relaxation dynamics at earth field and 1.8 T are about the same as a non-fluorinated SABRE catalyst T1=9.0±1.9 s and 16.0±1.4 s, respectively.

The mark [1] stands for this setting: NFBME / deuterated methanol mixture, catalyst of Example 4.
Setting [2] is: methanol, catalyst of Example 4, DMSO co-ligand.

Regarding `C[13C](=O)C(=O)O` [[1-^13C]pyruvate, Sodium [1-^13C]-pyruvate], under setting [1], the “T1 at 1.8 T” value turned out to be 16.0 ± 1.4 s, the “T1 at earth field” value was found to be 9.0 ± 1.9 s and the “corresponding T1 value” was found to be 11.3 ± 1.3 s. Moreover, under setting [2], the “T1 at 1.8 T” value is 66.5 ± 7 s, the “T1 at earth field” value stood at 28.9 ± 1.6 s and the “corresponding T1 value” was determined as 16.1 ± 0.9 s.
